Measurements: the supplement of paper PMC10307832

Columns and labels:
Experiment in all cases: relative viability (nuclei count vs DMSO), 5 days (fraction); higher = more cells survive
Neratinib + Palbociclib = compound: CCOc1cc2ncc(C#N)c(Nc3ccc(OCc4ccccn4)c(Cl)c3)c2cc1NC(=O)/C=C/CN(C)C [Neratinib] + CC(=O)c1c(C)c2cnc(Nc3ccc(N4CCNCC4)cn3)nc2n(C2CCCC2)c1=O [Palbociclib] (partner 0.5 µM)
Procedure, shortened: (§1)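 Lung cancer cell lines in 1536-well plates were dosed by pin tool the day after seeding, either with one drug alone or with a fixed anchor-drug dose plus five library-drug doses (not always all listed) in √10 steps. After 5 days, cells were fixed and their nuclei stained in one step (final 0.05% Triton X-100, 1% formaldehyde, 1 ug/ml Hoechst), then counted on 4× images. Relative viability is the nuclei count in treated wells divided by that in vehicle wells. Values are medians of duplicate plates.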

Neratinib + Pictilisib = compound: CCOc1cc2ncc(C#N)c(Nc3ccc(OCc4ccccn4)c(Cl)c3)c2cc1NC(=O)/C=C/CN(C)C [Neratinib] + CS(=O)(=O)N1CCN(Cc2cc3nc(-c4cccc5[nH]ncc45)nc(N4CCOCC4)c3s2)CC1 [Pictilisib] (partner 1 µM)
Procedure, shortened: as §1

Neratinib + Phenformin = compound: CCOc1cc2ncc(C#N)c(Nc3ccc(OCc4ccccn4)c(Cl)c3)c2cc1NC(=O)/C=C/CN(C)C [Neratinib] + N=C(N)NC(=N)NCCc1ccccc1 [Phenformin] (partner 250 µM)
Procedure, shortened: as §1

Neratinib + Decitabine = compound: CCOc1cc2ncc(C#N)c(Nc3ccc(OCc4ccccn4)c(Cl)c3)c2cc1NC(=O)/C=C/CN(C)C [Neratinib] + Nc1ncn([C@H]2C[C@H](O)[C@@H](CO)O2)c(=O)n1 [Decitabine] (partner 2 µM)
Procedure, shortened: as §1

Row | Cell Line | relative viability (Neratinib + Palbociclib; first compound 0.01 µM) | relative viability (Neratinib + Palbociclib; first compound 0.03162 µM) | relative viability (Neratinib + Palbociclib; first compound 0.1 µM) | relative viability (Neratinib + Palbociclib; first compound 0.3162 µM) | relative viability (Neratinib + Palbociclib; first compound 1 µM) | relative viability (Neratinib + Pictilisib; first compound 0.01 µM) | relative viability (Neratinib + Pictilisib; first compound 0.03162 µM) | relative viability (Neratinib + Pictilisib; first compound 0.1 µM) | relative viability (Neratinib + Pictilisib; first compound 0.3162 µM) | relative viability (Neratinib + Pictilisib; first compound 1 µM) | relative viability (Neratinib + Phenformin; first compound 0.01 µM) | relative viability (Neratinib + Phenformin; first compound 0.03162 µM) | relative viability (Neratinib + Phenformin; first compound 0.1 µM) | relative viability (Neratinib + Phenformin; first compound 0.3162 µM) | relative viability (Neratinib + Phenformin; first compound 1 µM) | relative viability (Neratinib + Decitabine; first compound 0.01 µM) | relative viability (Neratinib + Decitabine; first compound 0.03162 µM) | relative viability (Neratinib + Decitabine; first compound 0.1 µM) | relative viability (Neratinib + Decitabine; first compound 0.3162 µM) | relative viability (Neratinib + Decitabine; first compound 1 µM)
1 | LCLC-103H | 0.517 | 0.478 | 0.457 | 0.474 | 0.46 | 0.597 | 0.668 | 0.575 | 0.582 | 0.587 | 0.353 | 0.344 | 0.34 | 0.293 | 0.293 | 0.772 | 0.8 | 0.585 | 0.761 | 0.7
2 | NCI-H460 | 0.19 | 0.215 | 0.171 | 0.166 | 0.0933 | 0.325 | 0.384 | 0.294 | 0.323 | 0.32 | 0.58 | 0.675 | 0.414 | 0.491 | 0.341 | 0.559 | 0.527 | 0.522 | 0.459 | 0.449
3 | NCI-H1993 | 0.768 | 0.578 | 0.522 | 0.466 | 0.568 |  | 0.772 | 0.721 | 0.796 |  | 0.365 | 0.523 | 0.533 | 0.626 | 0.567 | 0.643 | 0.628 | 0.272 | 0.484 | 0.578
4 | BEN | 0.459 | 0.47 | 0.45 | 0.457 | 0.447 | 0.627 | 0.665 | 0.495 | 0.479 | 0.441 | 0.259 | 0.279 | 0.22 | 0.251 | 0.248 | 0.76 | 0.77 | 0.809 | 0.636 | 0.702
5 | LC-2-ad | 0.487 | 0.507 | 0.41 | 0.442 | 0.499 | 0.525 | 0.485 | 0.0712 | 0.249 | 0.162 |  | 0.578 | 0.557 | 0.421 | 0.45 | 0.931 | 0.815 | 0.72 | 0.7 | 
6 | COR-L23 | 0.328 | 0.333 | 0.275 | 0.255 | 0.216 |  |  | 0.739 | 0.644 | 0.257 | 0.44 | 0.469 | 0.429 | 0.473 | 0.41 | 0.456 | 0.478 | 0.499 | 0.495 | 0.473
7 | NCI-H1650 | 0.349 | 0.313 | 0.3 | 0.262 | 0.276 | 0.565 | 0.682 | 0.513 | 0.531 | 0.517 | 0.464 | 0.422 | 0.311 | 0.302 | 0.271 | 0.398 | 0.474 | 0.474 | 0.472 | 0.613
8 | UMC-11 | 0.321 | 0.327 | 0.319 | 0.335 | 0.243 | 0.776 | 1.06 | 0.566 | 0.746 | 0.701 | 0.333 | 0.328 | 0.32 | 0.293 | 0.275 | 0.324 | 0.574 | 0.634 | 0.414 | 0.194
